Results on 15 compounds are retold here after US20050131238A1, “Spermicides” (SSL International plc, priority 2001, published 2005).

One experiment deals with ME180 cells. Description: Cell cytotoxicity (MTT cell viability assay). The experiment is classed as cell-based. As to conditions: Homo sapiens, ME-180, concentration giving 50% inhibition of cell viability vs control, ± SEM. The procedure: 2. Determination of Cell Cytotoxicity (MTT Cell Viability Assay)
The effect of compounds on vaginal cell viability is assessed using the MTT assay. MTT is a tetrazolium salt which is converted by viable cells to an insoluble […]. This colour conversion is measured by spectrophotometry. Data is then subjected to non-linear regression analysis to generate concentration response curves and subsequently an EC50 value curves using GraphPad Prism software (San Diego, Calif., USA). The EC50 value is the concentration of spermicide which produces 50% inhibition of cell viability compared to control.

The test system of the next experiment is human sperm. Description: Evaluation of human sperm motility (spermicidal efficacy), manual microscopy. As to conditions: concentration giving 50% inhibition of sperm motility vs control, motility determined within 30 s by manual microscopy, ± SEM, read-out: Inhibition Human Sperm Motility (ED50). The experiment is classed as cell-based. An excerpt:
1. Evaluation of Human Sperm Motility (Spermicidal Efficacy)
The number of motile sperm (%) is rapidly determined (within 30s) following exposure to varying concentrations of spermicide using manual microscopy. Using non-linear regression analysis motility data from these screens is used to generate concentration response curves and subsequently an ED50 value using GraphPad Prism software (San Diego, Calif., USA). The ED50 value is the concentration of spermicide which produces 50% inhibition of sperm motility compared to control.

Another experiment deals with sperm. The following applies: 10 mM CPhM solution, incubation for 10 minutes; decreased from 80%; cited from earlier work.

On to `Cc1cc(N2C(=O)C=CC2=O)no1` [Compound 8], for which the EC50 was 858 µM with ME180 cells and 79 µM in the experiment on human sperm. For `COC(=O)c1scc(C)c1N1C(=O)C=CC1=O` [Compound 6], in that order: 88 µM and 26 µM.

Turning to `O=C1C=CC(=O)N1c1ccc(OCCOCCOCCOCCOCCOc2ccc(N3C(=O)C=CC3=O)cc2)cc1` [Compound 13], the EC50 in the experiment with ME180 cells was 125 µM; in the experiment on human sperm it was 4.6 µM.

In the case of `O=C1C=CC(=O)N1c1ccc(OCCOCCOCCOCCOc2ccc(N3C(=O)C=CC3=O)cc2)cc1` [Compound 15], the EC50 in the experiment with ME180 cells is 153 µM; with human sperm, 5 µM. With `O=C1C=CC(=O)N1CCN1C(=O)C=CC1=O` [Compound 10], the EC50 with ME180 cells amounted to 516 µM; in the experiment on human sperm, 4 µM. For `CCOC(=O)c1ccc(N2C(=O)C=CC2=O)cc1` [Compound 3], in that order: 363 µM and 77 µM.

As to `O=C1C=CC(=O)N1c1ccc(Nc2ccccc2)cc1` [Compound 4], the EC50 in the experiment on ME180 cells is 268 µM; with human sperm it was 31 µM. As to `O=C1C=CC(=O)N1C1CCCCC1` [Compound 5], the EC50 in the experiment on ME180 cells was determined as 114 µM; in the experiment on human sperm it was 294 µM. For the compound `N#Cc1cccc(N2C(=O)C=CC2=O)c1` [Compound 9], the values for the EC50 with ME180 cells and with human sperm were 143 µM and 56 µM, respectively.

`O=C1C=CC(=O)N1CCOCCOCCOCCN1C(=O)C=CC1=O` [Compound 12]: the EC50 came to 333 µM with ME180 cells and 10.5 µM with human sperm. As for `O=C1C=CC(=O)N1c1ccc2c(c1)OCCO2` [Compound 7], the values for the EC50 with ME180 cells and in the experiment on human sperm were 410 µM and 43 µM, respectively. `COCCOCCOCCOCCOc1ccc(N2C(=O)C=CC2=O)cc1` [Compound 14]: the EC50 worked out at 285 µM in the experiment with ME180 cells and 149 µM in the experiment with human sperm. The corresponding values for `O=C1C=CC(=O)N1c1ccc(-c2ccc(N3C(=O)C=CC3=O)cc2)cc1` [Compound 11] are above 30 µM and 1.4 µM. On to `O=C(O)c1ccc(N2C(=O)C=CC2=O)cc1O` [CPhM, N-(4-carboxy-3-hydroxy-phenyl)-maleimide], for which the “fertilising capacity of sperm” value in the experiment on sperm was 17%. As for `O=C1C=CC(=O)N1c1ccccc1` [Compound 1], the EC50 with ME180 cells stood at 370 µM; in the experiment with human sperm, 32 µM.
